From US20060111335A1, “Photoactivated anti-viral and anti-cancer agent” (priority 2002, published 2006)

Key:
CT DNA = test: Dark interaction of DPPZPHEN with CT DNA, UV-Vis absorption titration at 380 nm; type: binding, calf; conditions: CT DNA, from molar extinction coefficient at 380 nm
Method: General. The quantity of DNA was determined by the Burton assay (Burton, Biochem. J., 62:315-322 (1956)), and its rhodium content was quantitated using flame atomic absorption spectroscopy (AA). The equilibrium constant for interaction between DPPZPHEN and CT-DNA in the dark was calculated from UV-Vis absorption titration measurements at 380 nm (Wolfe et al., Biochem., 26:6392-6396 (1987); Schemel et al., Biopolymers, 10:465-480 (1971)). Cell viability was determined using the MTT assay (Denizot et al., J. Immunol. Methods, 89:271-277 (1986)). SINV was purified on sucrose gradients as previously described (Owen et al., J. Virol., 70:2757-2763 (1996)). The titer was generally 7-8 log10 pfu/mL at the beginning of each experiment.
Interaction of DPPZPHEN with DNA. […] An intrinsic binding constant of […] 3.4×10^5 M^−1 was calculated using the molar extinction coefficient at the λmax (380 nm) at each titration point.

M109 cells = test: Phototoxicity to M109 tumor cells, MTT assay; type: cell-based, mouse; conditions: dark, zero time point
Method: (§1) Photolysis with Tumor Cells.
Procedures for cell maintenance, cell plating, drug incubation, photolysis and MTT assay are all same as that used for the KB cell lines. A small amount of dark toxicity was observed (about 15%). A considerable amount of killing occurs with light alone after 30 and 40 minutes of irradiation (FIG. 10).

GN4 cells = test: Phototoxicity to GN4 tumor cells, MTT assay; type: cell-based, canine; conditions: dark, zero time point
Method: as §1
Media was decanted from the flask. […] Trypsin-EDTA was then decanted and the flask was incubated at 37° C. for 8 minutes. […] Released cells were suspended in 5 mL of media and shaken well. […] The remaining cells were discarded.
Cells were plated, incubated with the drug, and photolysis was conducted as for the KB cell lines.

SINV genomic RNA = test: Infectivity of genome RNA from treated SINV transfected into BHK cells, plaque assay; type: cell-based, Sindbis virus; conditions: irradiated 60 minutes, >330 nm
Method: Photolysis with SINV. DPPZPHEN/SINV solutions were prepared by adding a 0.3 mL aliquot of a 600 μM DPPZPHEN stock solution in PBS to 3 mL of purified virus at a concentration of 7-8 log10 pfu/mL and bringing the total volume to 4 mL. The DPPZPHEN/SINV solutions were incubated for 2 hours prior to irradiation, following which 3 mL of the solution was irradiated in quartz cuvettes with 355 nm light under a constant stream of nitrogen with stirring Aliquots of 100 μL were withdrawn over time and analyzed for virus infectivity. The inactivation rate constant was calculated using simple hit theory (Hiatt, Bacteriol. Rev., 28:150-163 (1964); Houghtaling et al., Photochem. Photobiol., 71:20-28 (2000)). For the studies measuring infectivity of genome RNA, a 6.9 μL aliquot of 0.623 M DPPZPHEN stock solution in DMSO was added to a 100 μL of TE12 wild type […] solution (10 log10 pfu/mL) to obtain a 40 mM DPPZPHEN/virus solution. Aliquots of 50 μL were placed into 250 μL inserts, incubated for 2 hours, and either kept in the dark or irradiated for 60 minutes with light >330 nm. At the completion of the experiment all the samples were diluted with 6 mL 1×PBS buffer and precipitated for 2 hours at 4° C. with 10% PEG+NaCl (200 mM). […]

[1] = Reversed phase HPLC elution on C8 column as measure of hydrophobicity; type: physicochemical; conditions: 45% acetonitrile in 100 mM ammonium acetate pH 5.4
Method: Reversed phase high performance liquid chromatography (RP-HPLC) was carried out on C8 columns. Compounds were tested using 20%, 30% and 45% acetonitrile in 100 mM ammonium acetate at pH 5.4 for elution on a C8 column, with the intention of achieving an elution time of about 15 minutes. It was expected that the more hydrophobic a compound, the higher the acetonitrile content one would need for the eluent.

KB cells = test: Phototoxicity to KB tumor cells, MTT assay; conditions: dark, zero time point
Method: Photolysis with Tumor Cells. […] At the beginning of an experiment media was removed from all plates and the cells were washed with 1 mL of PBS or Hank's salt solution. Drug solution (2 mL) or buffer solution (2 mL) was added to each dish. […] Cells were incubated, with or without metal complex, for 4 hours. After incubation, the solutions were removed from the dishes and the dishes were washed with 1 mL of PBS or Hank's salt solution. A fresh 1 mL of PBS or Hank's salt solution was added to each dish and these were placed on a turntable that sat on the top part of the photolysis chamber. […] The plates were then incubated for 40-48 hours before a determination of the extent of cell toxicity by MTT assay.
Cells were incubated in 75 cm^2 culture flasks. They were grown in Dulbecco's Modified Eagles Medium (D-MEM) supplemented with 10% heat inactivated fetal bovine serum (FBS), 1% L-glutamine-penicillin-streptomycin and 1% amphotericin-B. When cells were not plated for use in an experiment, they were transferred when they were 75-100% confluent using the following procedure. Media was decanted from the flask. Cells were rinsed 1-2 times with 10 mL of Hank's Balanced salt solution. […] Trypsin-EDTA was then decanted and the cells were released from the wall of the flask by tapping the side of the flask. Released cells were suspended in 5 mL media and 1 mL of this suspension was placed in a new culture flasks containing 20 mL of fresh media. The remaining cells were discarded. A culture flask can be used for 3 transfers.
Usually 16-24 hours before a photolysis experiment, cells were plated in 35×10 mm tissue culture dishes and incubated at 37° C. until the experiment was begun. Cells were about 75-100% confluent in the 75 cm^2 culture flask when plated. After being washed and released from the flask as described above, cells were suspended in 40 mL media and 1.5 mL of suspension was placed in each dish.
The concentration of the solution was 70 μM.
The cell dishes were incubated with drug or Hanks balanced salt solution (1 mL) for 3 hours. After incubation, solutions were decanted from the plates and 1 mL of Hank's Balanced salt solution were placed in each. […] Following photolysis, Hank's Balanced salt solutions were decanted and 1 mL of fresh media was placed in each plate.
Plates were incubated for 65 hours and then analyzed for cell survival by MT assay. 5 mg/mL MTT solution in water was prepared and 100 μL of this solution was added to each plate and the plates were incubated for 1.5 hours. Purple crystals formed from live cells. Media was gently removed from plates using a Pasteur pipette, the purple crystals that remained at the bottom of the dish were dissolved in 6 mL of isopropanol.
Phototoxicity studies with long wavelength light (>400 nm). […]

## [Cl-].[Cl][Rh+]12([Cl])([N]3C=CC=c4ccc5c(c43)[N]1C=CC=5)[N]1C=CC=c3c1c1c(c4nc5ccccc5nc34)=CC=C[N]12 [DPPZPHEN, cis-dichloro(dipyrido[3,2a-2′3′c]phenazine)(1,10-phenantroline) rhodium(III) chloride]
CT DNA
  intrinsic binding constant (Keq, association constant with DNA): 340000 M⁻¹
M109 cells
  cell toxicity in the absence of light: no appreciable degree of cell toxicity
GN4 cells
  cell toxicity in the absence of light: no appreciable degree of cell toxicity
SINV genomic RNA
  plaque formation in cells that received RNA from virus irradiated with compound: no plaque formation
[1]
  elution time: about 15 minutes
KB cells
  cell toxicity in the absence of light: no appreciable degree of cell toxicity
